Data published in ChEMBL document CHEMBL2169756, “Recent results in protein kinase inhibition for tropical diseases” (Bioorg Med Chem Lett, 2012).
Values after ≈ are worked out from the molar mass of the structure shown.

Key:
[1] = target: Cyclin-dependent kinase 6 (Homo sapiens, UniProt Q00534); assay: Inhibition of human CDK6
[2] = target: Cyclin-dependent kinase 7 (Homo sapiens, UniProt P50613); assay: Inhibition of human CDK7
[3] = target: Cyclin-dependent kinase 2 (Homo sapiens, UniProt P24941); assay: Inhibition of human CDK2
[4] = Inhibition of Plasmodium falciparum MPK
[5] = target: Cyclin-dependent kinase 1 (Homo sapiens, UniProt P06493); assay: Inhibition of human CDK1
Cyclin-dependent kinase 1, sequence (P06493 whole entry): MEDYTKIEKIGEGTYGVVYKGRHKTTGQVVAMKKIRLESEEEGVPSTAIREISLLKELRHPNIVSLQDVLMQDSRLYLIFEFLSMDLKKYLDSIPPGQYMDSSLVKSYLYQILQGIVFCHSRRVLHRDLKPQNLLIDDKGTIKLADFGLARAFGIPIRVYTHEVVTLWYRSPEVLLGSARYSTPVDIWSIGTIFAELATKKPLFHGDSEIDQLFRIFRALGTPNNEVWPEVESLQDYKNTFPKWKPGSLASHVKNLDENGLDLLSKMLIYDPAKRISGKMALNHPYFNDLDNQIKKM

Plasmodium falciparum = assay: Antimalarial activity against Plasmodium falciparum; type: functional, organism-based
[6] = target: T1, Calcium-dependent protein kinase 4 (Plasmodium falciparum (isolate 3D7), UniProt Q8IBS5); assay: Inhibition of CDPK4 in Plasmodium falciparum 3D7 microgametes
T1 sequence (Q8IBS5 whole entry): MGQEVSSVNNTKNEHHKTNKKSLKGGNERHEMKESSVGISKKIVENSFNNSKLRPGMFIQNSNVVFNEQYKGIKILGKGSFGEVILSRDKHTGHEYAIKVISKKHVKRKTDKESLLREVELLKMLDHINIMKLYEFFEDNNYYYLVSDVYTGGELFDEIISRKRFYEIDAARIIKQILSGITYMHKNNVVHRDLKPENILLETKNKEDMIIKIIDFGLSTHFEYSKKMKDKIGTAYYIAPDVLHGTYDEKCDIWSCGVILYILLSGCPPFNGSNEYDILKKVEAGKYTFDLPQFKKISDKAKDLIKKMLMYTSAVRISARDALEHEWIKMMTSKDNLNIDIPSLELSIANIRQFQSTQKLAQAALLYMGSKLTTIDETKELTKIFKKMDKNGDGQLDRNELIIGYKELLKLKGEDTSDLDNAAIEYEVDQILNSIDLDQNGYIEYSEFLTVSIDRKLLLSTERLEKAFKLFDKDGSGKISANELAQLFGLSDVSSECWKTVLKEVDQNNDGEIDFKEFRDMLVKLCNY

Cdc2-related kinase [7] = target: T2, Cdc2-related kinase (Leishmania major, UniProt O96526); assay: Inhibition of Leishmania major CRK3 expressed in Escherichia coli BL21 (DE3) using 5FAM-GGGRSPGRRRRK-OH as substrate after 60 mins by IMAP assay
T2 sequence (O96526 whole entry): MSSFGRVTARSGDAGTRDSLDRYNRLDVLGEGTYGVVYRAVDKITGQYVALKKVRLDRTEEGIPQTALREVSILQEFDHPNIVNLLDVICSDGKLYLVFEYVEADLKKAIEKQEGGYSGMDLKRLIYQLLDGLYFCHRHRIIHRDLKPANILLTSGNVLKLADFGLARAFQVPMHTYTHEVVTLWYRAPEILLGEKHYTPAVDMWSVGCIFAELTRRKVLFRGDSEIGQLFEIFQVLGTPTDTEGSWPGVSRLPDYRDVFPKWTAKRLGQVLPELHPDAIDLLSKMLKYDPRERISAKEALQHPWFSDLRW

Trypanosoma brucei = assay: Antitrypanosomal activity against Trypanosoma brucei infected in Swiss Webster mouse assessed as cure rate at 20 mg/kg, ip bid administered 4 days post infection; type: functional; conditions: route intraperitoneal
Leishmania donovani [8] = assay: Antileishmanial activity against Leishmania donovani MHOM/SD/62/1SCL2D amastigotes after 72 hrs by resazurin reduction assay; type: functional, organism-based
Leishmania donovani [9] = assay: Antileishmanial activity against Leishmania donovani MHOM/SD/62/1SCL2D promastigotes after 72 hrs by resazurin reduction assay; type: functional, organism-based
[10] = test system: Trypanosoma brucei brucei; assay: Antitrypanosomal activity against procyclic Trypanosoma brucei brucei 29-13 after 72 hrs by resazurin microplate assay; type: functional, organism-based; conditions: 29-13, 72 h
[11] = test system: Trypanosoma brucei brucei; assay: Antitrypanosomal activity against bloodstream form of Trypanosoma brucei brucei 427 after 72 hrs by resazurin microplate assay; type: functional, organism-based; conditions: Trypanosoma brucei, 427, 72 h
[12] = target: cGMP-dependent protein kinase (Plasmodium falciparum, UniProt W7JX98); assay: Inhibition of PKG in Plasmodium falciparum 3D7 microgametes
cGMP-dependent protein kinase, sequence (W7JX98 whole entry): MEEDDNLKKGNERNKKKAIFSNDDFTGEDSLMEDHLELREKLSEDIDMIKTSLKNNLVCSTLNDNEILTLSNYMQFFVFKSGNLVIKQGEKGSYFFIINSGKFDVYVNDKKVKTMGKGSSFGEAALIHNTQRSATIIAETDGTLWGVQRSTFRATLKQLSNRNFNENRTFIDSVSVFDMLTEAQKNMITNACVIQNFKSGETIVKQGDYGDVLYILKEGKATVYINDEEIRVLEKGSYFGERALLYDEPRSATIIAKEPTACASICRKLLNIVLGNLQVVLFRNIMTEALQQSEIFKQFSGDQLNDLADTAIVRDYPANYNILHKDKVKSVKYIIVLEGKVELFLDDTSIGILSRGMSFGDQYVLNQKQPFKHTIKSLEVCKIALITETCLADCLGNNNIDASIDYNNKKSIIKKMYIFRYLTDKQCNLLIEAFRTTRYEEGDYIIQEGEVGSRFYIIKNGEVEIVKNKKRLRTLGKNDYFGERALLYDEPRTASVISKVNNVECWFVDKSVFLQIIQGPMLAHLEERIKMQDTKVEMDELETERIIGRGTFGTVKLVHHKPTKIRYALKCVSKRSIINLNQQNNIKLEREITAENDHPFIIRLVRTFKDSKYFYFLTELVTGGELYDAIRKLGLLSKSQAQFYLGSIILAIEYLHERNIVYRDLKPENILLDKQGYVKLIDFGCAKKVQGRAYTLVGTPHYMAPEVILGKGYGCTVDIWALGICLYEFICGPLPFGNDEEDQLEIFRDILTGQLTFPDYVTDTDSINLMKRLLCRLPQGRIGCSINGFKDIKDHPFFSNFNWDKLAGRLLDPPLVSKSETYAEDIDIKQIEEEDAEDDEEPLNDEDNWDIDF

Leishmania major = assay: Antileishmanial activity against Leishmania major promastigotes; type: functional, organism-based
Cdc2-related kinase [13] = target: T2, Cdc2-related kinase; assay: Inhibition of Leishmania major CRK3 expressed in Escherichia coli BL21 (DE3) after 30 mins by autoradiography
Toxoplasma gondii = assay: Antiprotozoal activity against Toxoplasma gondii expressing low level of ROP18 infected in human HFF cells; type: functional, organism-based
[14] = Selectivity ratio of cytotoxicity for […] to IC50 for Mycobacterium tuberculosis H37Rv; type: cell-based
[15] = test system: Mycobacterium tuberculosis; assay: Antitubercular activity against Mycobacterium tuberculosis H37Rv by high throughput assay; type: functional

Cyclin-dependent kinase 7, sequence (P50613 whole entry): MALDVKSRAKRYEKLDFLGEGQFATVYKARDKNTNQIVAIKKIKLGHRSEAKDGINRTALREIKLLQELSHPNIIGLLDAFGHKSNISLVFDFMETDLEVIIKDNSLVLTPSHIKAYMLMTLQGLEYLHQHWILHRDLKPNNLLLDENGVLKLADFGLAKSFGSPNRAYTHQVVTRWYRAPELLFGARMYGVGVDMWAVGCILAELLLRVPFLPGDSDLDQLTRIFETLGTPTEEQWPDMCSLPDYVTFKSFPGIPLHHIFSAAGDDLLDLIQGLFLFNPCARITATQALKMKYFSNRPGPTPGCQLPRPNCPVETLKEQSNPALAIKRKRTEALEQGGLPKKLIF
Cyclin-dependent kinase 6, sequence (Q00534 whole entry): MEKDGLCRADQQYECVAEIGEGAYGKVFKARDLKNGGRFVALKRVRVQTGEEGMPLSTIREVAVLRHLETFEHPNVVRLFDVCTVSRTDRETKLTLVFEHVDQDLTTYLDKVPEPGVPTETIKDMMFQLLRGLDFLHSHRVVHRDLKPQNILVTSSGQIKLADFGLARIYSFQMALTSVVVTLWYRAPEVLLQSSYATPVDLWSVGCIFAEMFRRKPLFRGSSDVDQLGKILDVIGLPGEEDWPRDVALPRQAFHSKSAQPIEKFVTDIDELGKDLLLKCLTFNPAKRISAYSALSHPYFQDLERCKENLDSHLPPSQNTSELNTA

For `O=C(CBr)N(c1ccccc1)S(=O)(=O)c1cc(Cl)sc1Cl`, which IC50 [1] is on record?
Its IC50 is over 20000 nM.

What about the IC50 [2] of the same compound?
Its IC50 is over 20000 nM.

What about the IC50 [3] of the same compound?
The IC50 was over 20000 nM.

What about the IC50 [4] of the same compound?
The IC50 was 600 nM.

What about the IC50 [5] of the same compound?
Its IC50 is over 20000 nM.

And the IC50 (Plasmodium falciparum)?
The IC50 was 17000 nM.

Which IC50 [4] does the source give for `O=S(=O)(Nc1ccccc1)c1cc(Cl)sc1Cl` here?
The IC50 was 15000 nM.

With `CC(C)(C)n1nc(-c2ccc3ccccc3c2)c2c(N)ncnc21` as the compound, how does the IC50 [6] read?
The IC50 was 177 nM.

With `Oc1ccccc1-c1nc(NCc2cccnc2)c2ccccc2n1` as the compound, how does the IC50 (Cdc2-related kinase [7]) read?
Its IC50 is 11000 nM.

For `Cc1ccc(NC(=O)Nc2ccnc(-c3cccnc3)n2)cc1`, which IC50 (Cdc2-related kinase [7]) is on record?
Its IC50 is 1500 nM.

For `COc1ccccc1C(=O)c1cnc(NC2CCN(C(=O)Nc3ccccc3)CC2)nc1N`, which Activity (Trypanosoma brucei) is on record?
Its Activity is 100%.

What about the IC50 (Leishmania donovani [8]) of the same compound?
The IC50 was 1000 nM.

And the IC50 (Leishmania donovani [9])?
Its IC50 is 1000 nM.

What about the IC50 [10] of the same compound?
The IC50 was 70 nM.

What about the IC50 [11] of the same compound?
Its IC50 is 70 nM.

With `CN1CCC(c2cc(-c3ccncc3)c(-c3ccc(F)cc3)[nH]2)CC1` as the compound, how does the IC50 [12] read?
Its IC50 is 8 nM.

With `Cc1ccc(N(C(=O)CCl)S(=O)(=O)c2cc(Cl)sc2Cl)cc1` as the compound, how does the IC50 [4] read?
The IC50 was 127000 nM.

Which results are given for `COc1ccc(-n2nnc3c(N4CCCC(O)C4)nc(CC4CCCCC4)nc32)cc1` (centres undefined)?
IC50 (Leishmania major): 8600 nM; IC50 (Cdc2-related kinase [13]): 5300 nM

For `CC(=O)c1cccc(-c2cnn3ccc(Nc4ccc(N5CCOCC5)cc4)nc23)c1`, which IC50 (Cdc2-related kinase [7]) is on record?
Its IC50 is 260 nM.

With `COc1cc(-c2ccc3nc(NC(=O)C4CCCCC4)nn3c2)ccc1O` as the compound, how does the IC50 (Cdc2-related kinase [7]) read?
The IC50 was 240 nM.

Which IC50 (Cdc2-related kinase [7]) does the source give for `CCN(Cc1ccc(/C=C2\C(=O)Nc3ccccc32)o1)S(C)(=O)=O` here?
The IC50 was 510 nM.

For `Cc1cc(C)cc(-c2ccc3nc(NC(=O)C4CCCCC4)nn3c2)c1`, which IC50 (Cdc2-related kinase [7]) is on record?
Its IC50 is 20 nM.

With `Cc1cc(C)cc(-c2ccc3nc(NC(=O)C4CCCCCC4)n(C)c3c2)c1` as the compound, how does the IC50 (Cdc2-related kinase [7]) read?
Its IC50 is 5 nM.

Which IC50 (Cdc2-related kinase [7]) does the source give for `Cc1cccc(-c2ccc3nc(NC(=O)C4CCCCC4)nn3c2)c1` here?
Its IC50 is 60 nM.

Which IC50 (Toxoplasma gondii) does the source give for `Cn1c(=O)c(/C=C/c2ccc3c(c2)OCO3)nc2ccccc21` here?
Its IC50 is 2 nM.

Which results are given for `O=C(OCn1nnc2ccccc2c1=O)c1ccccc1`?
selectivity ratio [14]: > 28; IC90 [15]: 1.4 µg/mL (≈ 4.98 µM)

Which selectivity ratio [14] does the source give for `COc1ccccc1-c1cnn2c(Nc3cccc(Cl)c3)cc(C)nc12` here?
The selectivity ratio was 19.

And the IC90 [15]?
Its IC90 is 1.7 µg/mL (≈ 4.66 µM).

Which selectivity ratio [14] does the source give for `CC(C)(C)c1ccc(C(=O)Nc2nnc(-c3cccnc3)o2)cc1` here?
Its selectivity ratio is over 48.

What about the IC90 [15] of the same compound?
The IC90 was 0.84 µg/mL (≈ 2.61 µM).

Which selectivity ratio [14] does the source give for `O=C(Nc1nnc(-c2ccco2)o1)c1ccc(Oc2ccccc2)cc1` here?
Its selectivity ratio is over 75.

And the IC90 [15]?
Its IC90 is under 0.2 µg/mL.
